This note sets out measurements from ChEMBL document CHEMBL4680144, “N-thiadiazole-4-hydroxy-2-quinolone-3-carboxamides bearing heteroaromatic rings as novel antibacterial agents: Design, synthesis, biological evaluation and target identification” (Eur J Med Chem, 2020).

Values after ≈ are worked out from the molar mass of the structure shown. Active and inactive are the calls of the source. No cut-off for these calls is given here.

Data set [1] has as its system Staphylococcus aureus. Put plainly: In vivo antibacterial activity against methicillin resistant Staphylococcus aureus clinical isolate 15-1 infected in kunming mouse assessed as animal survival rate at 3 mg/kg, po administered 6 hrs prior to bacterial infection and at 0 and 6 hrs post infection and measured for 7 days (reference value: 12.5 %). The class given is functional. To be noted: time 7.0 day.

Data set [2] concerns Staphylococcus aureus. Kind of data set: In vivo antibacterial activity against methicillin resistant Staphylococcus aureus clinical isolate 15-1 infected in kunming mouse assessed as animal survival rate at 9 mg/kg, po administered 6 hrs prior to bacterial infection and at 0 and 6 hrs post infection and measured for 7 days (reference value: 12.5 %). The class given is functional. The note with it: time 7.0 day.

Data set [3] deals with Staphylococcus aureus. Kind of data set: Antibacterial activity against methicillin-resistant Staphylococcus aureus clinical isolate 15-3 assessed as inhibition of bacterial growth incubated for 18 to 24 hrs by broth microdilution method. To be noted: time 18-24 hrs. The class given is functional. On the technique in general: Dilution methods test growth across graded concentrations, often in twofold steps.

The test system of data set [4] is Enterococcus faecium. Kind of data set: Antibacterial activity against Enterococcus faecium clinical isolate 15-2 assessed as inhibition of bacterial growth incubated for 18 to 24 hrs by broth microdilution method. The class given is functional. To be noted: time 18-24 hrs.
Data set [5] deals with Enterococcus faecalis. Put plainly: Antibacterial activity against vancomycin-resistant Enterococcus faecalis ATCC 51575 assessed as inhibition of bacterial growth incubated for 18 to 24 hrs by broth microdilution method. The class given is functional. The note with it: time 18-24 hrs.
A short description of data set [6]: Selectivity index, ratio of IC50 for human HUVEC cells to MIC for methicillin-resistant Staphylococcus aureus. The class given is toxicity.
Data set [7] has as its system Staphylococcus epidermidis. Kind of data set: Antibacterial activity against methicillin-resistant Staphylococcus epidermidis clinical isolate 15-2 assessed as inhibition of bacterial growth incubated for 18 to 24 hrs by broth microdilution method. The class given is functional. The note with it: time 18-24 hrs.
Data set [8] has as its system Enterococcus faecium. Put plainly: Antibacterial activity against Enterococcus faecium clinical isolate 15-1 assessed as inhibition of bacterial growth incubated for 18 to 24 hrs by broth microdilution method. To be noted: time 18-24 hrs. The class given is functional.
Data set [9] relates to Staphylococcus aureus. Kind of data set: Antibacterial activity against methicillin resistant and vancomycin-intermediate sensitive Staphylococcus aureus ATCC 700788 assessed as inhibition of bacterial growth incubated for 18 to 24 hrs by broth microdilution method. The class given is functional. The note with it: time 18-24 hrs.
The test system of data set [10] is Enterococcus faecalis. Kind of data set: Antibacterial activity against vancomycin-resistant Enterococcus faecalis ATCC 700802 assessed as inhibition of bacterial growth incubated for 18 to 24 hrs by broth microdilution method. The class given is functional. To be noted: time 18-24 hrs.
Data set [11] relates to Staphylococcus epidermidis. Put plainly: Antibacterial activity against methicillin-sensitive Staphylococcus epidermidis clinical isolate 15-4 assessed as inhibition of bacterial growth incubated for 18 to 24 hrs by broth microdilution method. The class given is functional. To be noted: time 18-24 hrs.
Data set [12] concerns Enterococcus faecalis. Kind of data set: Antibacterial activity against Enterococcus faecalis clinical isolate 15-2 assessed as inhibition of bacterial growth incubated for 18 to 24 hrs by broth microdilution method. The note with it: time 18-24 hrs. The class given is functional.
Another data set relates to HepG2. Put plainly: Cytotoxicity against human HepG2 cells assessed as reduction in cell viability after 72 hrs by sulforhodamine B assay. The class given is cell-based. To be noted: HepG2, 72 h. On the technique in general: Sulforhodamine B stains cellular protein and so reports cell mass.
Data set [13] deals with Staphylococcus aureus. Kind of data set: Antibacterial activity against methicillin-resistant Staphylococcus aureus clinical isolate 15-8 assessed as inhibition of bacterial growth incubated for 18 to 24 hrs by broth microdilution method. The class given is functional. The note with it: time 18-24 hrs.
Data set [14] deals with Staphylococcus aureus. Kind of data set: Antibacterial activity against methicillin-resistant Staphylococcus aureus clinical isolate 15-7 assessed as inhibition of bacterial growth incubated for 18 to 24 hrs by broth microdilution method. The class given is functional. The note with it: time 18-24 hrs.
Data set [15] relates to Staphylococcus aureus. Kind of data set: Antibacterial activity against methicillin resistant and vancomycin-intermediate sensitive Staphylococcus aureus ATCC 700699 assessed as inhibition of bacterial growth incubated for 18 to 24 hrs by broth microdilution method. The class given is functional. To be noted: time 18-24 hrs.
The subject of data set [16] is Enterococcus faecalis. Kind of data set: Antibacterial activity against Enterococcus faecalis clinical isolate 15-1 assessed as inhibition of bacterial growth incubated for 18 to 24 hrs by broth microdilution method. The class given is functional. To be noted: time 18-24 hrs.
In data set [17] the test system is Enterococcus faecalis. Kind of data set: Antibacterial activity against vancomycin-resistant Enterococcus faecalis ATCC 51299 assessed as inhibition of bacterial growth incubated for 18 to 24 hrs by broth microdilution method. The class given is functional. To be noted: time 18-24 hrs.
The subject of data set [18] is Staphylococcus aureus. Kind of data set: Antibacterial activity against wild type methicillin-sensitive Staphylococcus aureus ATCC 29213 assessed as inhibition of bacterial growth incubated for 18 to 24 hrs by broth microdilution method. The class given is functional. To be noted: time 18-24 hrs.
A further data set relates to HUVEC. Kind of data set: Cytotoxicity against HUVEC assessed as reduction in cell viability after 72 hrs by sulforhodamine B assay. The note with it: Homo sapiens. The class given is cell-based.
Data set [19] has as its system Staphylococcus aureus. Kind of data set: Antibacterial activity against methicillin-resistant Staphylococcus aureus clinical isolate 15-9 assessed as inhibition of bacterial growth incubated for 18 to 24 hrs by broth microdilution method. The class given is functional. To be noted: time 18-24 hrs.
In data set [20] the test system is Staphylococcus epidermidis. Put plainly: Antibacterial activity against methicillin-sensitive Staphylococcus epidermidis clinical isolate 15-3 assessed as inhibition of bacterial growth incubated for 18 to 24 hrs by broth microdilution method. The class given is functional. To be noted: time 18-24 hrs.
Data set [21] deals with Staphylococcus aureus. Put plainly: Antibacterial activity against methicillin-resistant Staphylococcus aureus clinical isolate 15-1 assessed as inhibition of bacterial growth incubated for 18 to 24 hrs by broth microdilution method. The class given is functional. The note with it: time 18-24 hrs.
The nature of data set [22]: Selectivity index, ratio of IC50 for human HepG2 cells to MIC for methicillin-resistant Staphylococcus aureus. The class given is toxicity.
A short description of data set [23]: Inhibition of Staphylococcus aureus Gyrase B using linear pBR322 DNA as substrate incubated for 30 mins in presence of ATP by ADP-Glo assay. (In ADP-Glo the light output rises with the ADP produced.)
The test system of data set [24] is Staphylococcus aureus. Put plainly: Antibacterial activity against methicillin-resistant Staphylococcus aureus clinical isolate 15-2 assessed as inhibition of bacterial growth incubated for 18 to 24 hrs by broth microdilution method. The note with it: time 18-24 hrs. The class given is functional.
Data set [25] relates to Staphylococcus aureus. Kind of data set: Antibacterial activity against methicillin-resistant Staphylococcus aureus clinical isolate 15-6 assessed as inhibition of bacterial growth incubated for 18 to 24 hrs by broth microdilution method. The class given is functional. To be noted: time 18-24 hrs.
Data set [26] deals with Staphylococcus epidermidis. Put plainly: Antibacterial activity against methicillin-resistant Staphylococcus epidermidis clinical isolate 15-3 assessed as inhibition of bacterial growth incubated for 18 to 24 hrs by broth microdilution method. The class given is functional. To be noted: time 18-24 hrs.
Data set [27] relates to Staphylococcus epidermidis. Kind of data set: Antibacterial activity against methicillin-resistant Staphylococcus epidermidis clinical isolate 15-1 assessed as inhibition of bacterial growth incubated for 18 to 24 hrs by broth microdilution method. To be noted: time 18-24 hrs. The class given is functional.
Data set [28] concerns Staphylococcus aureus. Put plainly: Antibacterial activity against methicillin-resistant Staphylococcus aureus clinical isolate 15-1 assessed as reduction in bacterial growth treated for 20 passages. The class given is functional. To be noted: time 24 hrs.
Data set [29] concerns Staphylococcus aureus. Kind of data set: Bactericidal activity against methicillin-resistant Staphylococcus aureus clinical isolate 15-1 assessed as reduction in log10CFU at 4 times MIC measured over 24 hrs by time kill kinetics analysis. The class given is functional.
Data set [30] relates to Staphylococcus aureus. Kind of data set: Bactericidal activity against methicillin-resistant Staphylococcus aureus clinical isolate 15-1 assessed as reduction in log10CFU at 8 times MIC measured over 24 hrs by time kill kinetics analysis. The class given is functional.

As usually defined, the MIC is the least concentration at which growth counts as inhibited. In general, IC50 refers to the midpoint of a concentration-inhibition curve.

With `CC(=O)NC[C@H]1CN(c2ccc(N3CCOCC3)c(F)c2)C(=O)O1`, the outcome in the data set on Staphylococcus aureus [1] and in the data set on Staphylococcus aureus [2] was Active.
`CCn1c(=O)c(C(=O)Nc2nnc(-c3ccccn3)s2)c(O)c2ccccc21`: the minimum inhibitory concentration (MIC) with Staphylococcus aureus [3] was determined as 0.5 µg/mL (≈ 1.27 µM); in the data set on Enterococcus faecium [4], 1 µg/mL (≈ 2.54 µM); with Enterococcus faecalis [5], 1 µg/mL (≈ 2.54 µM); in [7], 1 µg/mL (≈ 2.54 µM); with Enterococcus faecium [8] it was 1 µg/mL (≈ 2.54 µM); in the data set with Staphylococcus aureus [9] it was 0.5 µg/mL (≈ 1.27 µM). The MIC with Enterococcus faecalis [10] was found to be 1 µg/mL (≈ 2.54 µM); in [11], 1 µg/mL (≈ 2.54 µM); in the data set on Enterococcus faecalis [12] it was 1 µg/mL (≈ 2.54 µM); in the data set on Staphylococcus aureus [13] it was 0.5 µg/mL (≈ 1.27 µM); with Staphylococcus aureus [14], 1 µg/mL (≈ 2.54 µM); in the data set with Staphylococcus aureus [15], 0.5 µg/mL (≈ 1.27 µM). The MIC in the data set on Enterococcus faecalis [16] was found to be 1 µg/mL (≈ 2.54 µM); in the data set on Enterococcus faecalis [17], 1 µg/mL (≈ 2.54 µM); in the data set with Staphylococcus aureus [18], 0.1 µg/mL (≈ 0.254 µM); in the data set with Staphylococcus aureus [19], 1 µg/mL (≈ 2.54 µM); in [20], 1 µg/mL (≈ 2.54 µM); with Staphylococcus aureus [21], 0.5 µg/mL (≈ 1.27 µM). Further, the MIC in the data set with Staphylococcus aureus [24] is 1 µg/mL (≈ 2.54 µM); in the data set with Staphylococcus aureus [25], 0.5 µg/mL (≈ 1.27 µM); in data set [26], 1 µg/mL (≈ 2.54 µM); in data set [27], 1 µg/mL (≈ 2.54 µM). For the same molecule, the selectivity ratio was found to be 26.5 in data set [6] and 63.2 in data set [22]. Moreover, the IC50 came to 63.2 µM with HepG2, 26.5 µM in the data set on HUVEC and 0.42 µM in [23].
In the case of `CN[C@H](CC(C)C)C(=O)N[C@H]1C(=O)N[C@@H](CC(N)=O)C(=O)N[C@H]2C(=O)N[C@H]3C(=O)N[C@H](C(=O)N[C@H](C(=O)O)c4cc(O)cc(O)c4-c4cc3ccc4O)[C@H](O)c3ccc(c(Cl)c3)Oc3cc2cc(c3O[C@@H]2O[C@H](CO)[C@@H](O)[C@H](O)[C@H]2O[C@H]2C[C@](C)(N)[C@H](O)[C@H](C)O2)Oc2ccc(cc2Cl)[C@H]1O` [VANCOMYCIN], the MIC in the data set with Staphylococcus aureus [28] worked out at 8 µg/mL (≈ 5.52 µM); in the data set with Staphylococcus aureus [9], 8 µg/mL (≈ 5.52 µM); in the data set with Enterococcus faecalis [12] it was 2 µg/mL (≈ 1.38 µM); in the data set on Enterococcus faecalis [16] it was 2 µg/mL (≈ 1.38 µM); in the data set with Enterococcus faecalis [17], 32 µg/mL (≈ 22.1 µM). For the same molecule, the Activity is >3 log10CFU/ml in the data set on Staphylococcus aureus [29] and 3 log10CFU/ml with Staphylococcus aureus [30].
Take `CCCCCc1nnc(NC(=O)c2c(O)c3ccccc3n(CC)c2=O)s1`: the MIC amounted to 0.5 µg/mL (≈ 1.29 µM) in the data set with Staphylococcus aureus [3]; 1 µg/mL (≈ 2.59 µM) in the data set on Enterococcus faecium [4]; 1 µg/mL (≈ 2.59 µM) in the data set on Enterococcus faecalis [5]; 1 µg/mL (≈ 2.59 µM) in [7]; 1 µg/mL (≈ 2.59 µM) with Enterococcus faecium [8]; 1 µg/mL (≈ 2.59 µM) in the data set on Staphylococcus aureus [9]. Further, the MIC came out at 1 µg/mL (≈ 2.59 µM) with Enterococcus faecalis [10]; 1 µg/mL (≈ 2.59 µM) in data set [11]; 1 µg/mL (≈ 2.59 µM) in the data set with Enterococcus faecalis [12]; 0.5 µg/mL (≈ 1.29 µM) in the data set on Staphylococcus aureus [13]; 0.5 µg/mL (≈ 1.29 µM) in the data set with Staphylococcus aureus [14]; 1 µg/mL (≈ 2.59 µM) in the data set on Staphylococcus aureus [15]. For the same molecule, the MIC with Enterococcus faecalis [16] was 2 µg/mL (≈ 5.17 µM); in the data set on Enterococcus faecalis [17] it was 1 µg/mL (≈ 2.59 µM); in the data set on Staphylococcus aureus [18], 0.1 µg/mL (≈ 0.259 µM); in the data set with Staphylococcus aureus [19], 1 µg/mL (≈ 2.59 µM); in data set [20], 1 µg/mL (≈ 2.59 µM); in the data set with Staphylococcus aureus [21] it was 0.5 µg/mL (≈ 1.29 µM). Moreover, the MIC worked out at 1 µg/mL (≈ 2.59 µM) in the data set on Staphylococcus aureus [24], 0.5 µg/mL (≈ 1.29 µM) in the data set with Staphylococcus aureus [25], 1 µg/mL (≈ 2.59 µM) in data set [26] and 1 µg/mL (≈ 2.59 µM) in data set [27]. The selectivity ratio in data set [6] worked out at 41.9; in data set [22], 52.1. For the same molecule, the IC50 with HepG2 amounted to 52.1 µM; in the data set with HUVEC it was 41.9 µM; in data set [23] it was 0.47 µM.
